Drawing on US11053251B2, “GPR35 modulators” (Prometheus Biosciences, Inc., priority 2019, dated 2021), this text covers EC50 for 29 molecules.

Molecules are shown by their SMILES. Some results are limits rather than exact numbers.

Assay [1] concerns the target Human GPR35 (Homo sapiens, UniProt Q9HC97). Description: Beta-Arrestin Assay (Tango U2OS cells, LiveBLAzer-FRET B/G). The class given is cell-based. Particulars: Human GPR35 expressing Tango U2OS cells, 5 hours treatment. On the procedure:
Human GPR35 expressing Tango U2OS cells were plated in 384-well format in clear bottom plates at a cell density of 10,000 cells/well and allowed to grow overnight. The next day, cells were treated with serially diluted test compounds for 5 hours. LiveBLAzer-FRET B/G (CCF4-AM) detection reagents were then added and cells were allowed to incubate for 2 hours before reading plates on a BioTek Cytation 5 plate reader. Zaprinast was used as a positive control for dose-response curves. In order to determine EC50 values, data were fit to a four-parameter dose-response curve.

Assay [2] has as its target Human GPR35 (Homo sapiens, UniProt Q9HC97, S294R). Description: Alternative Beta-Arrestin Assay (JumpIn 294R Tango U2OS cells, LiveBLAzer-FRET B/G). The class given is cell-based. Particulars: Human GPR35 expressing JumpIn 294R Tango U2OS cells, 5 hours treatment. Summed up:
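Beta-arrestin recruitment measured as FRET ratio change using CCF4-AM loading for 2 h, following 5-hour compound treatment of GPR35 (S294R) JumpIn Tango U2OS cells. Zaprinast served as positive control; EC50 values from four-parameter dose-response fits.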

Human GPR35 (Homo sapiens, UniProt Q9HC97), sequence (Q9HC97 whole entry): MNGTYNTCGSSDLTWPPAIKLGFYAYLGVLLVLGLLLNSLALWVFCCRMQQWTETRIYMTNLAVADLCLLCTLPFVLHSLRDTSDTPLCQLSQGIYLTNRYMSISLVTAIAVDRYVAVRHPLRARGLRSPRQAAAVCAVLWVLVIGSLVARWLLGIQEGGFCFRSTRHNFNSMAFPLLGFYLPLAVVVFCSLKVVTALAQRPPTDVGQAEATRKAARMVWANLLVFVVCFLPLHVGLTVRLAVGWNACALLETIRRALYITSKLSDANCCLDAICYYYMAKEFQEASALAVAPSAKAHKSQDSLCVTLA
Human GPR35 (Homo sapiens, UniProt Q9HC97, S294R), sequence (Q9HC97 whole entry S294R): as the sequence (Q9HC97 whole entry) above, with S294R counted along it

As to `CCOc1cc(C(=O)O)ccc1-c1nc2[nH]nnc2c(=O)[nH]1` [Compound 132, 3-Ethoxy-4-(7-oxo-6,7-dihydro-3H-[1,2,3]triazolo[4,5-d]pyrimidin-5-yl)benzoic acid], the EC50 at Human GPR35 [1] and at Human GPR35 [2] was no more than 10 µM throughout.
As for `CCOc1cc(C2CC2)ccc1-c1nc2[nH]nnc2c(=O)[nH]1` [Compound 130, 5-(4-cyclopropyl-2-ethoxyphenyl)-3,6-dihydro-7H-[1,2,3]triazolo[4,5-d]pyrimidin-7-one], the EC50 on Human GPR35 [1] and at Human GPR35 [2] was no more than 10 µM in each case.
Take `CCOc1cc(-c2ccncc2)ccc1-c1nc2[nH]nnc2c(=O)[nH]1` [Compound 104, 5-(2-Ethoxy-4-(pyridin-4-yl)phenyl)-3,6-dihydro-7H-[1,2,3]triazolo[4,5-d]pyrimidin-7-one]: the EC50 at Human GPR35 [1] and on Human GPR35 [2] was no more than 10 µM each time.
In the case of `CCOc1cc(N2CCC[C@@H]2C(=O)O)ccc1-c1nc2[nH]nnc2c(=O)[nH]1` [Compound 163, (3-ethoxy-4-(7-oxo-6,7-dihydro-3H-[1,2,3]triazolo[4,5-d]pyrimidin-5-yl)phenyl)-D-proline], the EC50 at Human GPR35 [1] and at Human GPR35 [2] was no more than 10 µM throughout.
`CCOc1cc(-c2ccc(F)c(C(=O)O)c2)ccc1-c1nc2[nH]nnc2c(=O)[nH]1` [Compound 183, 3′-ethoxy-4-fluoro-4′-(7-oxo-6,7-dihydro-3H-[1,2,3]triazolo[4,5-d]pyrimidin-5-yl)-[1,1′-biphenyl]-3-carboxylic acid]: the EC50 on Human GPR35 [1] and at Human GPR35 [2] was no more than 10 µM each time.
Consider `CCOc1cc(-c2ccccc2CC(=O)OC)ccc1-c1nc2[nH]nnc2c(=O)[nH]1` [Compound 118, Methyl 2-(3′-ethoxy-4′-(7-oxo-6,7-dihydro-3H-[1,2,3]triazolo[4,5-d]pyrimidin-5-yl)-[1,1′-biphenyl]-2-yl)acetate], for which the EC50 at Human GPR35 [1] and on Human GPR35 [2] was no more than 10 µM in each case.
Turning to `CCOc1cc(C(=O)N2CCCC(C(=O)O)C2)ccc1-c1nc2[nH]nnc2c(=O)[nH]1` (stereo not shown) [Compound 172, 1-(3-ethoxy-4-(7-oxo-6,7-dihydro-3H-[1,2,3]triazolo[4,5-d]pyrimidin-5-yl)benzoyl)piperidine-3-carboxylic acid], the EC50 – broadly, the concentration that produces a half-maximal response – at Human GPR35 [1] was no more than 10 µM; on Human GPR35 [2], 10 to 50 µM.
As for `CCOc1cc(-c2cccc(C(=O)OC)c2)ccc1-c1nc2[nH]nnc2c(=O)[nH]1` [Compound 107, Methyl 3′-ethoxy-4′-(7-oxo-6,7-dihydro-3H-[1,2,3]triazolo[4,5-d]pyrimidin-5-yl)-[1,1′-biphenyl]-3-carboxylate], the EC50 on Human GPR35 [1] and on Human GPR35 [2] was no more than 10 µM throughout.
For `CCOc1cc(Cc2ccc(C(=O)O)cc2)ccc1-c1nc2[nH]nnc2c(=O)[nH]1` [Compound 177, 4-(3-ethoxy-4-(7-oxo-6,7-dihydro-3H-[1,2,3]triazolo[4,5-d]pyrimidin-5-yl)benzyl)benzoic acid], the EC50 at Human GPR35 [1] and on Human GPR35 [2] was no more than 10 µM in each case.
Regarding `CCOc1cc(Cc2cccc(C(=O)O)c2)ccc1-c1nc2[nH]nnc2c(=O)[nH]1` [Compound 176, 3-(3-ethoxy-4-(7-oxo-6,7-dihydro-3H-[1,2,3]triazolo[4,5-d]pyrimidin-5-yl)benzyl)benzoic acid], the EC50 at Human GPR35 [1] and at Human GPR35 [2] was no more than 10 µM each time.
As to `CCOc1cc(N2CCC[C@H]2C(=O)O)ccc1-c1nc2[nH]nnc2c(=O)[nH]1` [Compound 162, (3-ethoxy-4-(7-oxo-6,7-dihydro-3H-[1,2,3]triazolo[4,5-d]pyrimidin-5-yl)phenyl)-L-proline], the EC50 at Human GPR35 [1] is no more than 10 µM; at Human GPR35 [2], 10 to 50 µM.
Take `CCOc1cc(-c2ccc(C(=O)OC)nc2)ccc1-c1nc2[nH]nnc2c(=O)[nH]1` [Compound 124, Methyl 5-(3-ethoxy-4-(7-oxo-6,7-dihydro-3H-[1,2,3]triazolo[4,5-d]pyrimidin-5-yl)phenyl)picolinate]: the EC50 on Human GPR35 [1] and at Human GPR35 [2] was no more than 10 µM throughout.
Take `CCOc1cc(-c2ccc(C(=O)OC)s2)ccc1-c1nc2[nH]nnc2c(=O)[nH]1` [Compound 116, Methyl 5-(3-ethoxy-4-(7-oxo-6,7-dihydro-3H-[1,2,3]triazolo[4,5-d]pyrimidin-5-yl)phenyl)thiophene-2-carboxylate]: the EC50 at Human GPR35 [1] and on Human GPR35 [2] was no more than 10 µM in each case.
For `CCOc1cc(-c2ccc(CC(=O)OC)cc2)ccc1-c1nc2[nH]nnc2c(=O)[nH]1` [Compound 114, Methyl 2-(3′-ethoxy-4′-(7-oxo-6,7-dihydro-3H-[1,2,3]triazolo[4,5-d]pyrimidin-5-yl)-[1,1′-biphenyl]-4-yl)acetate], the EC50 on Human GPR35 [1] and on Human GPR35 [2] was no more than 10 µM each time.
For the molecule `CCOc1cc(-c2cc(N)cc(C(=O)O)c2)ccc1-c1nc2[nH]nnc2c(=O)[nH]1` [Compound 123, 5-amino-3′-ethoxy-4′-(7-oxo-6,7-dihydro-3H-[1,2,3]triazolo[4,5-d]pyrimidin-5-yl)-[1,1′-biphenyl]-3-carboxylic acid], the EC50 on Human GPR35 [1] and at Human GPR35 [2] was no more than 10 µM throughout.
In the case of `CCOc1cc(NCCC(=O)O)ccc1-c1nc2[nH]nnc2c(=O)[nH]1` [Compound 168, 3-((3-ethoxy-4-(7-oxo-6,7-dihydro-3H-[1,2,3]triazolo[4,5-d]pyrimidin-5-yl)phenyl)amino)propanoic acid], the EC50 at Human GPR35 [1] and on Human GPR35 [2] was no more than 10 µM throughout.
`CCOc1cc(-c2c[nH]c(C(=O)O)c2)ccc1-c1nc2[nH]nnc2c(=O)[nH]1` [Compound 178, 4-(3-ethoxy-4-(7-oxo-6,7-dihydro-3H-[1,2,3]triazolo[4,5-d]pyrimidin-5-yl)phenyl)-1H-pyrrole-2-carboxylic acid]: the EC50 at Human GPR35 [1] and at Human GPR35 [2] was no more than 10 µM each time.
In the case of `CCOc1cc(-c2ccccc2C(=O)O)ccc1-c1nc2[nH]nnc2c(=O)[nH]1` [Compound 109, 3′-Ethoxy-4′-(7-oxo-6,7-dihydro-3H-[1,2,3]triazolo[4,5-d]pyrimidin-5-yl)-[1,1′-biphenyl]-2-carboxylic acid], the 50% effective concentration (EC50) on Human GPR35 [1] is no more than 10 µM; on Human GPR35 [2], 10 to 50 µM.
The corresponding values for `CCOc1cc(C(=O)NS(=O)(=O)N(C)C)ccc1-c1nc2[nH]nnc2c(=O)[nH]1` [Compound 152, N-(N,N-dimethylsulfamoyl)-3-ethoxy-4-(7-oxo-6,7-dihydro-3H-[1,2,3]triazolo[4,5-d]pyrimidin-5-yl)benzamide] are no more than 10 µM and no more than 10 µM.
The corresponding values for `CCOc1cc(-c2ccccc2CC(=O)O)ccc1-c1nc2[nH]nnc2c(=O)[nH]1` [Compound 119, 2-(3′-Ethoxy-4′-(7-oxo-6,7-dihydro-3H-[1,2,3]triazolo[4,5-d]pyrimidin-5-yl)-[1,1′-biphenyl]-2-yl)acetic acid] are no more than 10 µM and no more than 10 µM.
The corresponding values for `O=C(O)c1ccc(-c2nc3[nH]nnc3c(=O)[nH]2)cc1` [Compound 144, 4-(7-oxo-6,7-dihydro-3H-[1,2,3]triazolo[4,5-d]pyrimidin-5-yl)benzoic acid] are no more than 10 µM and no more than 10 µM.
Consider `CCOc1cc(-c2ccc(C(=O)O)cc2)ccc1-c1nc2[nH]nnc2c(=O)[nH]1` [Compound 111, 3′-Ethoxy-4′-(7-oxo-6,7-dihydro-3H-[1,2,3]triazolo[4,5-d]pyrimidin-5-yl)-[1,1′-biphenyl]-4-carboxylic acid], for which the EC50 at Human GPR35 [1] and at Human GPR35 [2] was no more than 10 µM in each case.
As for `CCOc1cc(C(=O)Nc2ccccn2)ccc1-c1nc2[nH]nnc2c(=O)[nH]1` [Compound 140, 3-ethoxy-4-(7-oxo-6,7-dihydro-3H-[1,2,3]triazolo[4,5-d]pyrimidin-5-yl)-N-(pyridin-2-yl)benzamide], the half-maximal effective concentration (EC50) at Human GPR35 [1] and on Human GPR35 [2] was no more than 10 µM in each case.
In the case of `O=c1[nH]c(-c2ccc(CO)cc2)nc2[nH]nnc12` [Compound 148, 5-(4-(hydroxymethyl)phenyl)-3,6-dihydro-7H-[1,2,3]triazolo[4,5-d]pyrimidin-7-one], the EC50 at Human GPR35 [1] was greater than 10 µM; at Human GPR35 [2], greater than 50 µM.
Take `CCOc1cc(N2CCCC(C(=O)O)C2)ccc1-c1nc2[nH]nnc2c(=O)[nH]1` (stereo not shown) [Compound 173, 1-(3-ethoxy-4-(7-oxo-6,7-dihydro-3H-[1,2,3]triazolo[4,5-d]pyrimidin-5-yl)phenyl)piperidine-3-carboxylic acid]: the concentration giving a half-maximal response (EC50) at Human GPR35 [1] and on Human GPR35 [2] was no more than 10 µM each time.
Take `CCOc1cc(-c2ccc(C(=O)O)s2)ccc1-c1nc2[nH]nnc2c(=O)[nH]1` [Compound 117, 5-(3-Ethoxy-4-(7-oxo-6,7-dihydro-3H-[1,2,3]triazolo[4,5-d]pyrimidin-5-yl)phenyl)thiophene-2-carboxylic acid]: the EC50 on Human GPR35 [1] and at Human GPR35 [2] was no more than 10 µM throughout.
With `CCOc1cc(C(=O)Nc2ccccc2)ccc1-c1nc2[nH]nnc2c(=O)[nH]1` [Compound 134, 3-Ethoxy-4-(7-oxo-6,7-dihydro-3H-[1,2,3]triazolo[4,5-d]pyrimidin-5-yl)-N-phenylbenzamide], the EC50 at Human GPR35 [1] and on Human GPR35 [2] was no more than 10 µM each time.
On to `CCOc1cc(-c2ccc(Cl)c(C(=O)O)c2)ccc1-c1nc2[nH]nnc2c(=O)[nH]1` [Compound 180, 4-chloro-3′-ethoxy-4′-(7-oxo-6,7-dihydro-3H-[1,2,3]triazolo[4,5-d]pyrimidin-5-yl)-[1,1′-biphenyl]-3-carboxylic acid], for which the EC50 at Human GPR35 [1] and at Human GPR35 [2] was no more than 10 µM throughout.
With `CCOc1cc(C(=O)N[C@H](CCC(=O)O)C(=O)O)ccc1-c1nc2[nH]nnc2c(=O)[nH]1` [Compound 169, (3-ethoxy-4-(7-oxo-6,7-dihydro-3H-[1,2,3]triazolo[4,5-d]pyrimidin-5-yl)benzoyl)-D-glutamic acid], the EC50 at Human GPR35 [1] and on Human GPR35 [2] was no more than 10 µM each time.
